≈ marks a conversion by molar mass, not a printed value. Like-named read-outs stand apart in the source and are kept apart here.
Assays:
Type in all cases: cell-based
influenza A virus = experiment: Anti influenza A virus activity, cytopathic effect (CPE) in MDCK cells
Text: (§1) 4. Screening of the samples for the anti-influenza virus A and B activity: MDCK (canine kidney) cells were used as the virus host to test the inhibition effect of the compounds of the present invention on the cytopathic effect (CPE) of the cells caused by the virus.

[1] = test system: MDCK (canine kidney) cells; experiment: 50% toxicity concentration in the anti-influenza screen (MDCK cells); conditions: 50% toxity concentration, Table 3-2 (influenza screen, MDCK cells)
Text: as §1

hepatitis B virus (HBV) = experiment: HBV-DNA replication in HepG2.2.15 culture supernatant (fluorescent quantification PCR); conditions: for IC50: Hepatitis B virus; for DNA replication IC89: ICX: concentration with 89% inhibition of HBV-DNA replication; for DNA replication IC12: ICX: concentration with 12% inhibition of HBV-DNA replication
Text: (§2) Hepatitis B virus (HBV) transgenic human hepatoma carcinoma cell, HepG2.2.15 cell line, can secrete hepatitis B virus particles (containing antigen and DNA) into supernatant when being cultured.
(§3) Under action of antiviral drugs, the contents of HBsAg, HBeAg and viral DNA secreted from cells into the supernatant were detected and are compared with the contents of control groups without drugs, so that the antiviral activity of the compounds of the present invention can be measured as well as the cytotoxic effect of compounds of the present invention. The value concentration of the compounds of the present invention which caused 50% of cells dead and was measured with MTT method was CC50; and the value concentration of the compounds of the present invention which inhibited the secretion of HBsAg and HBeAg detected by ELISA method and inhibited 50% of viral DNA replication detected by fluorescent quantification PCR method was IC50.
(§4) HepG2.2.15 cells were inoculated on a 96-well plate, and the compounds of the present invention were added next day. The medium and the compound solutions of the same concentration were renewed periodically. The culture supernatants were collected on the eighth day to be detected. MTT was added to the cells on the 96-well plate, and MTT dissolving liquid was added after 4 hours to be reacted overnight. OD570 was measured next day on microplate reader. And the cytotoxicity of the compounds of the present invention to the HepG2.2.15 cells, the effect of the compounds of the present invention on the growth of the cells, and the concentration of the compound of the present invention (CC50) causing 50% of the cells dead were estimated according to the OD values.
A suitable amount of culture supernatant was added into a same volume of virus extract solution, and was boiled after mixed uniformly, then centrifuged at 10000 rpm for 5 min under room temperature. A suitable amount of supernatant was collected for PCR amplification. Five HBV-DNA standard samples were used to set a standard curve. According to the obtained viral DNA replication value, the inhibition rates of HBV-DNA replication of the compound of the present invention at different concentrations were calculated, and then the half inhibition rates of the compounds were calculated to obtain IC50. For the samples that can not be calculated for IC50 value, they can be represented by ICX and given the corresponding concentration values.

[2] = Cytotoxicity to HepG2.2.15 cells (MTT method); conditions: human, HepG2.2.15 cells (HBV-transgenic human hepatoma cells), 50% death concentration, eighth day
Text: as §2, §3, §4

[3] = HepG2.2.15 supernatant, eighth day, fluorescent quantification PCR, read-out: DNA replication IC50
[4] = HepG2.2.15, read-out: DNA replication IC50

SMILES	IC50 (hepatitis B virus (HBV); [3]) [µM]	CC50 [2] [µM]	other results
COC(=O)c1coc([C@H](C)NC(=O)c2nc(-c3csc([C@@H](NC(=O)c4ccccc4)C(C)C)n3)oc2C)n1 [Wang 537.59]	–	–	IC50 (influenza A virus): 1.29 µg/mL (≈ 2.4 µM); TC50 [1]: >1000 µg/mL
C=CCC(=O)N[C@H](c1nc(-c2nc(C(=O)N[C@@H](C)c3nc(C(=O)OC)co3)c(C)o2)cs1)C(C)C [Wang 501.56-2]	–	–	IC50 (influenza A virus): 68.7 µg/mL (≈ 137 µM); TC50 [1]: 577.35 µg/mL (≈ 1150 µM)
COC(=O)c1nc(-c2csc([C@@H](NC(=O)CC=C(C)C)C(C)C)n2)oc1C [Wang391.49-2]	–	–	IC50 (influenza A virus): > 192 µg/mL; TC50 [1]: >1000 µg/mL
Cc1oc(-c2csc([C@@H](NC(=O)CC3=CCCC3)C(C)C)n2)nc1C(=O)O [Wang389.47]	–	–	IC50 (influenza A virus): 29 µg/mL (≈ 74.5 µM); TC50 [1]: 480.75 µg/mL (≈ 1230 µM)
CCOC(=O)c1nc(-c2ccc(C)s2)oc1CC(C)C [Compound C293]	126	80	–
COC(=O)c1nc(-c2csc([C@@H](NC(=O)CC3=CCCC3)C(C)C)n2)oc1C [Wang 403.50]	–	–	IC50 (influenza A virus): 64.2 µg/mL (≈ 159 µM); TC50 [1]: 333.33 µg/mL (≈ 826 µM)
COC(=O)c1coc([C@H](C)NC(=O)c2nc(-c3csc([C@@H](NC(=O)CC4=CCCCC4)C(C)C)n3)oc2C)n1 [Wang 555.65]	–	–	IC50 (influenza A virus): 44.5 µg/mL (≈ 80 µM); TC50 [1]: 577.35 µg/mL (≈ 1040 µM)
c1ccc(-c2cnc(-c3cccs3)o2)cc1 [Compound C227]	1.4	> 100	–
CCOc1cnc(-c2oc(-c3cccs3)nc2C(=O)c2ccccc2)o1 [Compound C352]	8.3	> 33.3	–
CCOC(=O)c1nc(-c2nc(CC)cs2)sc1CC(C)C [Compound C324-2]	0.14	> 100	–
CCOC(=O)c1nc(-c2cccs2)oc1CC(C)C [Compound C279-3]	–	> 100	–
NC(=O)c1ncn([C@@H]2O[C@H](CO)[C@@H](O)[C@H]2O)n1 [Ribavirin, reference compound]	–	–	IC50 (influenza A virus): 3.73 µg/mL (≈ 15.3 µM)
CCCc1ccc(-c2nc(C(=O)OCC)c(CC(C)C)o2)s1 [Compound C321-3]	–	80	DNA replication IC27 (hepatitis B virus (HBV); ICX: concentration with 27% inhibition of HBV-DNA replication, IC50 not calculable): IC27 = 1.23 uM
CCOC(=O)c1nc(-c2ccc(C)s2)[nH]c1CC(C)C [Compound C292]	4.65	139	–
CCOC(=O)c1nc(-c2cccs2)[nH]c1C1CCCCC1 [Compound C304]	4.5	> 100	–
CCOC(=O)c1nc(-c2cc3ccccc3[nH]2)[nH]c1CC(C)C [Compound C311-2]	0.07	3.5	–
CNC(=O)c1nc(-c2nccs2)sc1CC(C)C [Compound C281]	–	–	DNA replication IC94 (hepatitis B virus (HBV); ICX: concentration with 94% inhibition of HBV-DNA replication, IC50 not calculable): IC94 = 33 uM
CCOC(=O)c1nc(-c2nccs2)[nH]c1C1CCCC1 [Compound C291]	5.5	> 100	–
CC(C)Cc1sc(-c2nccs2)nc1C(=O)NCc1ccccc1 [Compound C357]	–	80	DNA replication IC89 (hepatitis B virus (HBV); IC50 not calculable): IC89 = 33 uM
CCOC(=O)c1nc(-c2nc3cc(OC)ccc3s2)sc1CC(C)C [Compound C376]	23	127	–
CCOC(=O)c1nc(-c2nccs2)oc1CC(C)C [Compound C280-1]	–	> 100	–
CCOC(=O)c1nc(-c2cccs2)oc1C1CCCCC1 [Compound C305-1]	2.6	> 100	–
CCCCc1sc(-c2cccs2)nc1C(=O)OCC [Compound C295-1]	11.7	50	–
CCOC(=O)c1nc(-c2nccs2)[nH]c1C1CC1 [Compound C263-1]	3.7	> 100	–
CCCCc1[nH]c(-c2nccs2)nc1C(=O)OCC [Compound C279-1]	–	94.7	DNA replication IC40 (hepatitis B virus (HBV); ICX: concentration with 40% inhibition of HBV-DNA replication, IC50 not calculable): IC40 = 12.4 uM

SMILES	IC50 (hepatitis B virus (HBV); [3]) [µM]	CC50 [2] [µM]	other results
CCOC(=O)c1nc(-c2nccs2)[nH]c1C1CCC1 [Compound C277]	3.1	> 100	–
CCOC(=O)c1nc(-c2cc3ccccc3[nH]2)sc1CC(C)C [Compound C328-2]	–	21.7	–
CCCCc1sc(-c2nccs2)nc1C(=O)OCC [Compound C296-2]	–	> 100	DNA replication IC12 (hepatitis B virus (HBV); IC50 not calculable): IC12 = 0.41 uM
CCOC(=O)c1nc(-c2nccs2)[nH]c1C1CCCCC1 [Compound C305-2]	4.1	> 100	–
c1ccc(-c2cnc(-c3cccs3)[nH]2)cc1 [Compound C226]	2.3	53.2	–
CCOC(=O)c1nc(-c2cscn2)sc1CC(C)C [Compound C296-3]	0.14	116	–
CCCc1ccc(-c2nc(C(=O)OCC)c(CC(C)C)s2)s1 [Compound C337]	–	60	–
CCOC(=O)c1nc(-c2nccs2)oc1C1CCCCC1 [Compound C306]	0.8	> 100	–
CCOC(=O)c1nc(-c2ccc(CC)s2)oc1CC(C)C [Compound C307]	22.5	80	–
c1ccc(-c2cnc(-c3cccs3)s2)cc1 [Compound C243]	0.41	84.5	–
CCCCc1oc(-c2cccs2)nc1C(=O)OCC [Compound C279-2]	51.9	71.8	–
CCCCc1oc(-c2ccc(CCC)s2)nc1C(=O)OCC [Compound C321-1]	5.86	80	–
CCOC(=O)c1nc(-c2cccs2)[nH]c1C1CC1 [Compound C262]	4.3	34.4	–
CC(C)Cc1sc(-c2nccs2)nc1C(=O)Nc1ccccc1 [Compound C343]	–	–	DNA replication IC19 (hepatitis B virus (HBV); ICX: concentration with 19% inhibition of HBV-DNA replication, IC50 not calculable): IC19 = 1.23 uM
CCOC(=O)c1nc(-c2cc3ccccc3s2)[nH]c1CC(C)C [Compound C328]	0.19	> 7.5	–
CCCCc1oc(-c2nccs2)nc1C(=O)OCC [Compound C280-2]	–	> 100	DNA replication IC26 (hepatitis B virus (HBV); ICX: concentration with 26% inhibition of HBV-DNA replication, IC50 not calculable): IC26 = 0.41 uM
CC(C)Cc1sc(-c2nccs2)nc1C(N)=O [Compound C267]	–	–	DNA replication IC89 (hepatitis B virus (HBV); IC50 not calculable): IC89 = 33 uM
CCOC(=O)c1nc(-c2cccs2)[nH]c1/C=C/c1ccccc1 [Compound C324]	–	61	–
CC(C)Cc1cnc(-c2nccs2)o1 [Compound C208]	35.8	> 100	–
CCOC(=O)c1nc(-c2cc3ccccc3s2)sc1CC(C)C [Compound C345]	–	> 88.1	IC50 (hepatitis B virus (HBV); [4]): 1.32 µM
CC(C)Cc1sc(-c2nccs2)nc1C(=O)N(C)C [Compound C295-3]	–	–	DNA replication IC12 (hepatitis B virus (HBV); IC50 not calculable): IC12 = 1.23 uM
CCOC(=O)c1nc(-c2cccs2)sc1C1CCCCC1 [Compound C321-2]	–	28.2	IC50 (hepatitis B virus (HBV); [4]): 1.67 µM
CCOC(=O)c1nc(-c2cc3ccccc3s2)oc1CC(C)C [Compound C329]	–	> 100	DNA replication IC41.8 (hepatitis B virus (HBV); ICX: concentration with 41.8% inhibition of HBV-DNA replication, IC50 not calculable): IC41.8 = 4 uM
CCOC(=O)c1nc(-c2ncc(C)s2)sc1CC(C)C [Compound C310]	0.14	> 100	–
CCOC(=O)c1nc(-c2ccc(C)s2)sc1CC(C)C [Compound C309]	–	> 100	DNA replication IC14.2 (hepatitis B virus (HBV); ICX: concentration with 14.2% inhibition of HBV-DNA replication, IC50 not calculable): IC14.2 = 0.39 uM
